pKi: −log10 of the molar value. Structures can show the parent of a compound that is named as a salt.
Tests used:
[1] = biological target: T1, 5-HT2 receptors (Rattus norvegicus, UniProt P14842); assay: Affinity to 5-HT2 receptors (3H-ketanserine binding assay, Leysen et al.); details: 3H-ketanserine as ligand
T1 construct: from tissue
Protocol: The binding assay is carried out essentially as described by Leysen et al. (Mol. Pharmacol. 21, 301-14, 1982) using ^3 H-ketanserine as ligand.

[2] = combined 5-HT2/D2 affinity; cited from earlier work

T1 sequence (P14842 whole entry): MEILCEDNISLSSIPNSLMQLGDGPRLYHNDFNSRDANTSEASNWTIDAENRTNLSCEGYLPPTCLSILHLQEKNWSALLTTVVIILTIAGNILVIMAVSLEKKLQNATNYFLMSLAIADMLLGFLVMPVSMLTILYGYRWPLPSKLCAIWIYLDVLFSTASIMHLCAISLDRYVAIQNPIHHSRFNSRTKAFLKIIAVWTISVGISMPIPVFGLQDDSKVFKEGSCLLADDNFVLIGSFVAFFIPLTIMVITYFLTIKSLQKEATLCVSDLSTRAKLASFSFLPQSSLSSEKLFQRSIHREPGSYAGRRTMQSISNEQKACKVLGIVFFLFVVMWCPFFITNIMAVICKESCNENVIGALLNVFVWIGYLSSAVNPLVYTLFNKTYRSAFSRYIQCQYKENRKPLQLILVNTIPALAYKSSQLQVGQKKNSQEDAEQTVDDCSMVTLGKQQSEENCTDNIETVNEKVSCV

Compound: NC(=O)c1cccnc1N1CCN(CCCSc2ccc(F)cc2)CC1 [2:19, 4-/3-(p-fluorothiophenoxy)propyl/-1-/3-carbamyl-2-pyridyl/piperazine dihydrochloride]
- pKi [1]: 8.15

Compound: COc1cccc(N2CCN(CCCOc3ccc(F)cc3)CC2)n1 [2:10, 4-/3-(p-fluorophenoxy)propyl/-1-/6-methoxy-2-pyridyl/piperazine fumarate]
- pKi [1]: 7.96

Compound: CN1CCN(C2=Nc3cc(Cl)ccc3Nc3ccccc32)CC1 [clozapine]
- antipsychotic effect / extrapyramidal side-effects [2]: antipsychotic effect with a low degree of extrapyramidal side-effects

Compound: Fc1ccc(CCCCN2CCN(c3cccc(Cl)n3)CC2)cc1 [2:9, 4-/4-(p-fluorophenyl)butyl/-1-/6-chloro-2-pyridyl/piperazine hydrochloride]
- pKi [1]: 8.15
